Patent US7022700B2, “Method of increasing neutrophil production using optically-pure (R)-2,3-benzodiazepines” (Vela Pharmaceuticals, Inc., priority 2002, dated 2006)
Marks after values point to notes of the source that are not given here.

What was measured:
peripheral BZ receptors = peripheral BZ receptors (Homo sapiens, UniProt P30536); settings: cited from earlier work
IL-2 production = settings: in vitro; cited from earlier work
lymphocyte = settings: in vitro; cited from earlier work
[1] = system: central benzodiazepine (BZ) receptors; settings: cited from earlier work
[2] = system: neutrophil production (absolute neutrophil count); assay: Increase in neutrophil production in 16-day study in rat; assay type: in vivo
Protocol: Animals were identified using an implanted microchip identification device encoded with a unique number. Each animal was dosed daily via oral gavage with either a test substance (R-tofisopam) or control, starting on Day 1 and through day 15. The control article was 0.5% low viscosity carboxymethylcellulose (CMC) (Lot No. 74231) and 0.4% Tween 80® (lot no. QJ1033) in reverse osmosis water.
The animals were sacrificed on Day 16 (with the exception of three males and one female which died on test or was sacrificed before the scheduled termination, and which are not included in the mean neutrophil count data). Neutrophil counts in Table 2, below, are reported as a mean value of the count for the animals of each group surviving and sacrificed on Day 16.
The normal range of absolute neutrophil counts is […] for male and 0.2–2.4×10^3 cells/μL for female rats. For each sex, groups 2–4 were compared with the control group (Group 1M or 1F). Group comparisons were evaluated at the 5.0%, two-tailed probability level. Data marked with * represents a statistically significant difference from the corresponding control group.

[3] = in vivo; cited from earlier work
[4] = female rats, group 2F, 100 mg/kg/day oral gavage days 1-15
[5] = female rats, group 3F, 200 mg/kg/day oral gavage days 1-15
[6] = female rats, group 4F, 400 mg/kg/day oral gavage days 1-15
[7] = male rats, group 2M, 100 mg/kg/day oral gavage days 1-15
[8] = male rats, group 3M, 200 mg/kg/day oral gavage days 1-15
[9] = male rats, group 4M, 400 mg/kg/day oral gavage days 1-15

Sequence of peripheral BZ receptors (P30536 whole entry): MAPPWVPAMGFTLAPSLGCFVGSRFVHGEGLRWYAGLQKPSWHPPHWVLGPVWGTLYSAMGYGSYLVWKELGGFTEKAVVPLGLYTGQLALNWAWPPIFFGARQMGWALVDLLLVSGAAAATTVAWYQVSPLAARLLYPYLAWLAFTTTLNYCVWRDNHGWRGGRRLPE

Which “binding to peripheral BZ receptors” value (peripheral BZ receptors) does the source give for `CCC1C(C)=NN=C(c2ccc(OC)c(OC)c2)c2cc(OC)c(OC)cc21` (racemic) [tofisopam] here?
The value was “binds only weakly”.

And the IL-2 production (IL-2 production)?
The IL-2 production was “enhances”.

And the mitogen-induced lymphocyte proliferation (lymphocyte)?
Its mitogen-induced lymphocyte proliferation is “enhances”.

What about the “interaction with central benzodiazepine (BZ) receptors” value [1] of the same molecule?
The value was “does not interact”.

For `CC[C@H]1C(C)=NN=C(c2ccc(OC)c(OC)c2)c2cc(OC)c(OC)cc21` [R-tofisopam, (R)-1-(3,4-dimethoxyphenyl)-4-methyl-5-ethyl-7,8-dimethoxy-5H-2,3-benzodiazepine], which “Mean % change (day 16)” value [2, 4] is on record?
Its value is 29* %.

What about the “Mean Neutrophil count (day 16)” value [2, 4] of the same molecule?
Its value is 2.4* × 10^3/μL.

And the “Mean % change (day 16)” value [2, 5]?
The value was 47* %.

What about the “Mean Neutrophil count (day 16)” value [2, 5] of the same molecule?
Its value is 6.0* × 10^3/μL.

What about the “Mean % change (day 16)” value [2, 6] of the same molecule?
Its value is 63* %.

And the “Mean Neutrophil count (day 16)” value [2, 6]?
Its value is 11.6* × 10^3/μL.

What about the “neutrophil levels versus control group” value ([2]; male and female rats, 100-400 mg/kg/day oral gavage, 5.0% two-tailed probability level) of the same molecule?
Its value is “significantly increased in a dose-dependant manner”.

And the “Mean % change (day 16)” value [2, 7]?
Its value is 43* %.

And the “Mean Neutrophil count (day 16)” value [2, 7]?
The value was 5.7* × 10^3/μL.

And the “Mean % change (day 16)” value [2, 8]?
The value was 45* %.

What about the “Mean Neutrophil count (day 16)” value [2, 8] of the same molecule?
Its value is 7.4* × 10^3/μL.

And the “Mean % change (day 16)” value [2, 9]?
Its value is 57* %.

What about the “Mean Neutrophil count (day 16)” value [2, 9] of the same molecule?
The value was 12.9* × 10^3/μL.

B1: Nupogen: recombinant version of a human protein, G-CSF (granulocyte-colony stimulating factor) (protein, chains of the INN, looked up)
chain: MTPLGPASSLPQSFLLKCLEQVRKIQGDGAALQEKLCATYKLCHPEELVLLGHSLGIPWAPLSSCPSQALQLAGCLSQLHSGLFLYQGLLQALEGISPELGPTLDTLQLDVADFATTIWQQMEELGMAPALQPTQGAMPAFASAFQRRAGGVLVASHLQSFLEVSYRVLRHLAQP
Which elimination half-life [3] does the source give for B1 here?
Its elimination half-life is 3.5 h.

B2: Neulasta: a longer acting derivative of filgrastim (protein, chains of the INN, looked up)
chain: TPLGPASSLPQSFLLKCLEQVRKIQGDGAALQEKLCATYKLCHPEELVLLGHSLGIPWAPLSSCPSQALQLAGCLSQLHSGLFLYQGLLQALEGISPELGPTLDTLQLDVADFATTIWQQMEELGMAPALQPTQGAMPAFASAFQRRAGGVLVASHLQSFLEVSYRVLRHLAQP
modifications: PEG 20 kDa
notes: a longer acting derivative of filgrastim
Which elimination half-life [3] does the source give for B2 here?
The elimination half-life was 15 to 80 h.
